Data reported in publication PMC11513854, “De novo GTP synthesis is a metabolic vulnerability for the interception of brain metastases” (Cell Reports Medicine, 2024).

What was measured:
lung-BMIC line (BT478) = experiment: Dose-response assay, PrestoBlue; type: cell-based, human; details: for IC50: Homo sapiens, BT478, 72-h treatment, PrestoBlue, N/A, not applicable, read-out: Lung-BM IC50
Protocol: For preliminary drug screening, drugs were plated at a concentration of 10 μM in a 96-well plate, in triplicate at a density of 1000 cells/well, and incubated at 37°C with a humidified atmosphere of 5% CO2 for three days. Vehicle controls for cell death are used in each functional experiment. Following treatment, PrestoBlue (20 μL, Invitrogen), a resazurin-based cell viability reagent and fluorescence indicator of cell metabolism, was added to each well to estimate proliferation approximately 2 h prior to measuring fluorescence intensity via FLUOstar Omega Fluorescence 556 Microplate reader (BMG LABTECH) at an excitation and emission wavelength of 540 nm and 590 nm, respectively. Results were analyzed using Omega analysis software.
(§1) Dose-response assays were conducted using the same protocol apart from drugs being plated using 2-fold serial dilutions (20 μM - 39 nM) as previously described.[66] The half maximal inhibitory concentration (IC50) is determined by plotting percent cell viability by the logarithmic concentration of drug. IC80 concentrations will be used for subsequent functional assays (cell proliferation, sphere formation), as determined by the following formula: ICF=100−F/F^1/H×IC50 where F = fraction of maximal response and H = hill slope.

lung-BMICs = experiment: Intracranial injection of lung-BMICs, daily oral gavage treatment; type: in vivo, mice; details: 100 mg/kg daily oral gavage from 24 h after injection; log rank n.s. [MPA], p = 0.0005 [Compound 3]
Protocol: The cells were injected intracranially to ensure that any survival benefit would be due to the compounds crossing the BBB and targeting BMICs in the brain.
All experimental procedures involving animal work has been reviewed and approved by McMaster University Animal Research Ethics Board. Non-obese diabetic-severe combined immunodeficient IL2r γ ^null (NSG) mice are used for all experiments. Equal numbers of male and female mice were used for all experiments. Healthy mice were 6–8 weeks at time of use. Mice are anesthetized by gas anesthesia using isoflurane (4% induction, 2.5% maintenance) before procedure. Cells were engineered to express firefly luciferase and were injected intracardially, orthotopically, or intracranially as previously described.[13]^,[14]^,[63]^,[64]^,[65] […] Mice are monitored weekly for signs of illness until endpoint.

[1] = Parallel artificial membrane permeability (PAMPA) assay; type: in vitro ADME; details: 50 μM, pH 7.4, 16 h; −LogPe < 6 indicate high CNS permeability
Protocol: The permeability of the compounds was evaluated using the parallel artificial membrane permeability (PAMPA) assay, as previously described.[35] The PAMPA assembly was consisted of the acceptor plate (MultiScreen IP Filter Plate, Millipore Sigma, Canada) and the donor plate (96 well Collection Plate, Millipore Sigma, Canada). The artificial membrane solution was prepared as 15 mg/mL of polar brain lipid from porcine (Sigma Aldrich, Oakville, Canada) in a solution of 60% chloroform/40% dodecane. Seven μL of the mixture was pipetted into each acceptor plate well (top compartment). Thereafter, 300 μL of PBS (1 × PBS, pH 7.4, 5% DMSO) solution was added to each well of the acceptor plate and 300 μL of drug-containing donor solutions (50 μM compounds in 1 × PBS, pH 7.4, 5% DMSO) to each well of the donor plate (bottom compartment) in triplicate. […] The concentration of the compounds was determined by LC/MS/MS. The effective permeability (Pe), in units of centimeter per second, was calculated using the following equation: LogPe=Log{C×[−Ln(1−[drug]acceptor/[drug]equilibrium)]} Where: C = VD × VA/[(VD + VA) × t × A]; VD = volume of donor compartment (0.30 mL); VA = volume of acceptor compartment (0.30 mL); A = filter area (0.24 cm^2 for Multi-Screen Permeability Filter plate); and t = incubation time (in seconds).

[2] = system: patient-derived BMIC lines from lung-, breast-, and melanoma-BM; experiment: Dose-response curves of multiple BM lines; type: cell-based, human; details: 72-h treatment; below plasma Cmax concentration of 10 μM
Text: PrestoBlue readout is normalized to vehicle-treated cells. Data are presented as mean ± SD from 4 technical replicates. (C) Assessment of cell viability of patient-derived BMICs treated with MPA or its vehicle. PrestoBlue readout is normalized to vehicle-treated cells, p < 0.0001. […] Sphere count normalized to vehicle-treated cells, p < 0.0001. (F and G) Percent wound closure of DMSO control vs. MPA-treated cells expressed as an average of replicates (n = 3) and images are taken at 10× magnification. Wound closure (represented by dotted white line) is measured using ImageJ on Incucyte-derived images, p values are indicated. Scale bars are 400 μm. See also Videos S1, S2, S3, and S4. Comparisons of cell viability, sphere formation, and wound closure were made via a two-tailed unpaired t test and data are presented as mean ± SD from 3 to 4 technical replicates. […]
as §1

patient-derived BMICs = experiment: Clonogenic secondary sphere formation assay after drug removal; type: cell-based, human; details: IC80 treatment for 72 h, then removal from culture media
[3] = system: primary CRUK0748 lung tumor cells; experiment: Pre-treatment model, intrathoracic engraftment of primary lung tumor cells; type: in vivo, mice; details: cells pre-treated in vitro
Protocol: Mice injected with MPA-treated cells also experienced a significant increase in median survival time of 6 days compared to the mice injected with vehicle-treated cells (Figure 3H).
BMICs were dissociated into single cell suspensions and resuspended in phosphate buffered saline (PBS, Wisent Bio) with 2 mM EDTA. Cells were stained with APC-conjugated anti-human TRA-1-85 (CD147; Cat # 130-128-900, Miltenyi Biotec) and incubated for 15 min at room temperature. The viability dye 7-Aminoactinomycin D (7-AAD; Cat # 00-6993-50, eBioscience) was used to exclude dead cells; incubation with 7-AAD allows for penetration of compromised membranes and binding to DNA.[74] Live cells were analyzed using Summit 5.4 software on MoFlo XDP cell sorter (Beckman Coulter) to confirm human BMIC metastasis to the brain.

Compound: COc1c(C)c2c(c(O)c1C/C=C(\C)CCC(=O)OCCN1CCCC1)C(=O)OC2 [Compound 3]
- selectivity for BMICs compared to normal brain cells (lung-BMIC line (BT478); BT478, MDA-MB-231 Br, BT673 vs neural stem cells, 72 h): retained MPA’s therapeutic window
- IC50 (lung-BMIC line (BT478)): 15.3 µM
- survival advantage (lung-BMICs): significant survival advantage
- BBB penetrance by PAMPA [1]: BBB penetrant

Compound: COc1c(C)c2c(c(O)c1C/C=C(\C)CCC(=O)O)C(=O)OC2 [MPA, Mycophenolic acid]
- IC50 (lung-BMIC line (BT478)): 3.61 µM
- survival advantage (lung-BMICs): no survival advantage
- anti-BMIC activity against multiple BMIC lines [2]: relatively high anti-BMIC activity
- sphere-forming capability following drug removal (patient-derived BMICs): do not regain sphere-forming capability
- TRA-1-85-positive human cells detected in brains ([3]; humane endpoint, flow cytometry, vs vehicle): significantly fewer
- increase in median survival time ([3]; intrathoracic injection, vs vehicle-treated cells): 6 days
